In ChEMBL document CHEMBL1201862, “PubChem BioAssay data set” (2004):
Active and inactive are the calls of the source.

Key:
[1] = Shn3 3'UTR reporter inhibitors, dose response, cell-based, Clone20 osteoblasts, firefly luciferase, cherry-picked (AID 624132); assay type: functional;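 also: firefly luciferase luminescence from reporter carrying the Shn3 3'UTR in osteoblasts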
[2] = HepG2 cell cytotoxicity, dose response, cytotoxicity control for Shn3 inhibitor project, CellTiter-Glo, cherry-picked (AID 624134); assay type: functional, cell-based
[3] = control 3'UTR Renilla luciferase suppression, dose response, counter-screen for Shn3 inhibitor project, cell-based, Clone20-Shn3RL, cherry-picked (AID 624133); assay type: functional
[4] = biological target: T1, Corticotropin-releasing factor receptor 2/Corticotropin-releasing factor-binding protein (Homo sapiens, UniProt P24387+Q13324); experiment: activators of CRF receptor 2 with binding protein – uHTS hits, confirmation (AID 602473); assay type: functional; conditions: read-out: EC50_Mean
T1 sequence (Q13324 whole entry): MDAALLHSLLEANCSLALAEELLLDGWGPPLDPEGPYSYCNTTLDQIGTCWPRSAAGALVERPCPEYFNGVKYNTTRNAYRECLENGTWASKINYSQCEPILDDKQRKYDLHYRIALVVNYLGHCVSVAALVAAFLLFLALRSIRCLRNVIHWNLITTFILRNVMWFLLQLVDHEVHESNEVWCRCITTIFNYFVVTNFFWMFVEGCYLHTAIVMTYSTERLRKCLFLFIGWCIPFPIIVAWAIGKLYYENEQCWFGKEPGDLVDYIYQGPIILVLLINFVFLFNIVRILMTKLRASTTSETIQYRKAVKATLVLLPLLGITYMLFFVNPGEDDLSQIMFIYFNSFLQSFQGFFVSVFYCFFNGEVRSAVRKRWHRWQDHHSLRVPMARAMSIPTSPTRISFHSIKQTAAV
T1 sequence (P24387 whole entry): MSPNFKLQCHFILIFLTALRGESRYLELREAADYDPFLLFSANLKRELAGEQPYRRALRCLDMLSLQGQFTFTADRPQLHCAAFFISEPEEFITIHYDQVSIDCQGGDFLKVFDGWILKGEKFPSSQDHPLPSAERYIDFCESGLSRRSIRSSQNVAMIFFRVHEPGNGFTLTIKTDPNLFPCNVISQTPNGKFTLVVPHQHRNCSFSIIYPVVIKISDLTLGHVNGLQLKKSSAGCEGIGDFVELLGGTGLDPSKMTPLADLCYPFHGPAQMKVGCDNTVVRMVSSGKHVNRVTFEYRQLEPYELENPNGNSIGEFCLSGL

[5] = biological target: T1, Corticotropin-releasing factor receptor 2/Corticotropin-releasing factor-binding protein; experiment: Dose Response confirmation of uHTS hits for small molecule antagonists of the CRF-binding protein and CRF-R2 receptor complex.; assay type: functional; conditions: read-out: IC50_Mean
[6] = biological target: T2, Estrogen receptor (Homo sapiens, UniProt P03372);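 also: potency for inhibiting coactivator peptide recruitment to the receptor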
T2 sequence (P03372 whole entry): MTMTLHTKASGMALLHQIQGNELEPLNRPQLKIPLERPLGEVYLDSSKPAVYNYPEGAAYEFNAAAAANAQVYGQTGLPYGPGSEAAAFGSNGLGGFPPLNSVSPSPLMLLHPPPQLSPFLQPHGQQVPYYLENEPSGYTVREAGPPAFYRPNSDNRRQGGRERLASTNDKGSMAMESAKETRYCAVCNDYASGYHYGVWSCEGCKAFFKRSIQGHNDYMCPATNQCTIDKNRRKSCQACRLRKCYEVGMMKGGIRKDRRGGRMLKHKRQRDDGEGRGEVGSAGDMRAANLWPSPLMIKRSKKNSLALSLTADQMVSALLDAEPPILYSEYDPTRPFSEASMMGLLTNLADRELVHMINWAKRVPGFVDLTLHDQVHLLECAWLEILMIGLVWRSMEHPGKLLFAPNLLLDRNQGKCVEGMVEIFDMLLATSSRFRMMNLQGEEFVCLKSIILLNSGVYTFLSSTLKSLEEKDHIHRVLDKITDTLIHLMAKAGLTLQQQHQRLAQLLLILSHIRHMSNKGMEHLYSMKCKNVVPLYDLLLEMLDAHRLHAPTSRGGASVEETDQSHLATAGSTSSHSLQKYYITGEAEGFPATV

[7] = biological target: T3, Protein skinhead-1 (Caenorhabditis elegans, UniProt P34707); assay type: functional
T3 sequence (P34707 whole entry): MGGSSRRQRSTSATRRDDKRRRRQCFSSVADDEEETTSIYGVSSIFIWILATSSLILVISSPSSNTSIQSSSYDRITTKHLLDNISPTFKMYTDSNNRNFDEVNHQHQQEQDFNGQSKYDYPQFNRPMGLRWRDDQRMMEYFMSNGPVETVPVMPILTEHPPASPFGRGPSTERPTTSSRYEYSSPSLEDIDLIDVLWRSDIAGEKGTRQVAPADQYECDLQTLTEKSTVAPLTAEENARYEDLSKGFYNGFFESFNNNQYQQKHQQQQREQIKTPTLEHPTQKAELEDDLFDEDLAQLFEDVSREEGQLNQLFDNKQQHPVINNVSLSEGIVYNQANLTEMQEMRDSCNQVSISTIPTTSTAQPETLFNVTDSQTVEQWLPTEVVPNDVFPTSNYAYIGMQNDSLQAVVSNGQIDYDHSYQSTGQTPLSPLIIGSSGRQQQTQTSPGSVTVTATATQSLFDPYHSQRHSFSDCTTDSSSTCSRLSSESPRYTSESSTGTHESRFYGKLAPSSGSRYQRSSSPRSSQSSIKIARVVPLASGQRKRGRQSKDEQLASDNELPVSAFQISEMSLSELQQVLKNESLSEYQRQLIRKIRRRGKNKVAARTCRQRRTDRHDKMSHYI

[8] = biological target: T4, Polyadenylate-binding protein 1 (Homo sapiens, UniProt P11940); experiment: PABP1 MLLE–PAM2 interaction inhibitors, dose response, miRNA deadenylation inhibitor project, biochemical, fluorescence polarization, Cy5-PAM2 peptide, secondary (AID 602260); assay type: functional; conditions: read-out: IC50_Mean
T4 sequence (P11940 whole entry): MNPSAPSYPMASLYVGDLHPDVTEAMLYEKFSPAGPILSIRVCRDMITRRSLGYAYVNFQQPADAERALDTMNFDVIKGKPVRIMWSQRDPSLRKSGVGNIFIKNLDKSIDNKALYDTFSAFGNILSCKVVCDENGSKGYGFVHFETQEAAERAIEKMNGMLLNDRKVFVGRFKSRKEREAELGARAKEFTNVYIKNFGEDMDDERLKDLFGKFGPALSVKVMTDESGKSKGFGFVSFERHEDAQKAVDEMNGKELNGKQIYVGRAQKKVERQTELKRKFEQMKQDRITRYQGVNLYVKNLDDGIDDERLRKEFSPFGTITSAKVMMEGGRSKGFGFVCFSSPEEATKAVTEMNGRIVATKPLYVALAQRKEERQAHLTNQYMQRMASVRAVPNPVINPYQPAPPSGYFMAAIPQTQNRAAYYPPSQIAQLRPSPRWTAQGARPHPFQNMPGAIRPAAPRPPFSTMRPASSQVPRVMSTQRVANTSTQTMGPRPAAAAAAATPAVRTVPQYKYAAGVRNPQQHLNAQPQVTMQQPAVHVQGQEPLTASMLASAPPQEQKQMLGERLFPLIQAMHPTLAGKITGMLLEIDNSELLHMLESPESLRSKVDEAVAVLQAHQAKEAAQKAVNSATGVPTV

[9] = biological target: T4, Polyadenylate-binding protein 1; experiment: PABP1 MLLE–PAM2 binding inhibitor potency, dose response, biochemical, fluorescence polarization, FITC-PAM2 peptide (AID 602259); assay type: functional; conditions: read-out: IC50_Mean
[10] = biological target: T5, Fatty acid synthase (Homo sapiens, UniProt P49327); experiment: FAS thioesterase domain inhibitors, dose response, biochemical, endpoint fluorescence intensity, uHTS hits (AID 624327); assay type: functional;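 also: fluorescence from hydrolysis of an O-methyl fluorescein acyl ester substrate by the enzyme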
T5 sequence (P49327 whole entry, the tested form may be a part): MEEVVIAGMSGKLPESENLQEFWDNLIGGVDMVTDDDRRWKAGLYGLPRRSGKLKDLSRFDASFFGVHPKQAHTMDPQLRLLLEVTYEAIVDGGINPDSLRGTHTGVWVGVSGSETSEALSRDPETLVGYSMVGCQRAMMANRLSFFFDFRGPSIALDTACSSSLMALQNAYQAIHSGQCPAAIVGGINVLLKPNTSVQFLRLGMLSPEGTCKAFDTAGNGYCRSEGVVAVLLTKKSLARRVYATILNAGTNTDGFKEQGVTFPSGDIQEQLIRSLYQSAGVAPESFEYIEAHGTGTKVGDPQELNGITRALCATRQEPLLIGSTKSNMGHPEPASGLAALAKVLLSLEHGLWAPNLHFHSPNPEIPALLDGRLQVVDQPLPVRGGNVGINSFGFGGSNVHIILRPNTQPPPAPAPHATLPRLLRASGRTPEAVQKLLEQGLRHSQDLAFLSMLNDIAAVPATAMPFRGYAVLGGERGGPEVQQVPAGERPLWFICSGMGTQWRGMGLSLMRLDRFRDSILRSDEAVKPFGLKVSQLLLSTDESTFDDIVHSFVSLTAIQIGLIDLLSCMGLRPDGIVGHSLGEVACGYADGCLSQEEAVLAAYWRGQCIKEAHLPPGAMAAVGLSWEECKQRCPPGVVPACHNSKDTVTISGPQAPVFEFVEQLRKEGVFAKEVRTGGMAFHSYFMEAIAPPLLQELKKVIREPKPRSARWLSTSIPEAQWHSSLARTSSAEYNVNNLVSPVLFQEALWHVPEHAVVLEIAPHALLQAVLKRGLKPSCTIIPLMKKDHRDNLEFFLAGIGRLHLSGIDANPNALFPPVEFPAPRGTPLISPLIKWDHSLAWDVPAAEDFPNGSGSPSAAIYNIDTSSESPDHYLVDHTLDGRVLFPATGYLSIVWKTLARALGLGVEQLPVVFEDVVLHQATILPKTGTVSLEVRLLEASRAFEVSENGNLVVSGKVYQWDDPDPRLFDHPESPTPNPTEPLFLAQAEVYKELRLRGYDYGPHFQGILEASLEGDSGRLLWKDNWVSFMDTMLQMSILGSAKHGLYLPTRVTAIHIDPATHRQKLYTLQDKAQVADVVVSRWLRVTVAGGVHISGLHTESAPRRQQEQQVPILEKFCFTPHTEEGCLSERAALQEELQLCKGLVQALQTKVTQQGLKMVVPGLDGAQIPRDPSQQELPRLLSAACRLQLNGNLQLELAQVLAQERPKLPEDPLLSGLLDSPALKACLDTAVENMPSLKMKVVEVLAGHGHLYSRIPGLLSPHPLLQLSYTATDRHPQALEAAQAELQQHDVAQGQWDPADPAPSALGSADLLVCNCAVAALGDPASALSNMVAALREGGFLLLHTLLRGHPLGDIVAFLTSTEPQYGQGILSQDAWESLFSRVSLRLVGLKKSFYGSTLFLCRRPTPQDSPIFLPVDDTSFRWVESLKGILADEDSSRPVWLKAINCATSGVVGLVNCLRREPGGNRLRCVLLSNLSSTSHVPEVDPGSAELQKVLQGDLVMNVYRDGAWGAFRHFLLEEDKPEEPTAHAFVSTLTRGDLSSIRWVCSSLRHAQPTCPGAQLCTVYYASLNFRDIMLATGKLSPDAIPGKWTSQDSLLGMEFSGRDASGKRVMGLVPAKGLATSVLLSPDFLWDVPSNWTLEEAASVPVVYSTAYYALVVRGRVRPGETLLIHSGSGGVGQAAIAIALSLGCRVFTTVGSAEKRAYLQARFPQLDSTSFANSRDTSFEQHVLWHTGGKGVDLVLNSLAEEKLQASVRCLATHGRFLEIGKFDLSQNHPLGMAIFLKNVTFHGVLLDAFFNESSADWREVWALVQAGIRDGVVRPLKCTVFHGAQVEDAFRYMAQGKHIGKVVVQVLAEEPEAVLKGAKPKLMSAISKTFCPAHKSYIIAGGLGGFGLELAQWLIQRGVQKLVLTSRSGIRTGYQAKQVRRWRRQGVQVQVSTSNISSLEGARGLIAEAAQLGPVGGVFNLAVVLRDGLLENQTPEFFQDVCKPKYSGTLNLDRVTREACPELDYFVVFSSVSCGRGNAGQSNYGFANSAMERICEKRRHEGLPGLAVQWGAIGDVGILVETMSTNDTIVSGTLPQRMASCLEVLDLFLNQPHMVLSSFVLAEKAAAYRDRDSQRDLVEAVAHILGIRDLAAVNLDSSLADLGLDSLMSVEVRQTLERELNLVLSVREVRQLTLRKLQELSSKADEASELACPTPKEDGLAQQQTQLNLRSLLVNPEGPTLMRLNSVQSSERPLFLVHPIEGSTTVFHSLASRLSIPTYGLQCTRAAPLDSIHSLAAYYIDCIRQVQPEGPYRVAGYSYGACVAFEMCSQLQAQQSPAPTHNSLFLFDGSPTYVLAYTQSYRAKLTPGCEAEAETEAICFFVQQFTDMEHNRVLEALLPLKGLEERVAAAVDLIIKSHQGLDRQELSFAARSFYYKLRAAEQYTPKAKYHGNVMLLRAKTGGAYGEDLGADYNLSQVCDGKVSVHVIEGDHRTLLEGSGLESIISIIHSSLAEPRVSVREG

[11] = biological target: T5, Fatty acid synthase; experiment: FAS thioesterase domain inhibitors, dose response, biochemical, kinetic fluorescence intensity (AID 624326); assay type: functional;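 also: rate of fluorescence rise from hydrolysis of a fluorogenic O-methyl fluorescein ester substrate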
[12] = biological target: FAD-linked sulfhydryl oxidase ALR (Homo sapiens, UniProt P55789); experiment: inhibitors of human ALR sulfhydryl oxidase, dose response, biochemical, H2O2 detection, luminescence, cherry-pick (AID 493248)
Sequence of FAD-linked sulfhydryl oxidase ALR (P55789 whole entry): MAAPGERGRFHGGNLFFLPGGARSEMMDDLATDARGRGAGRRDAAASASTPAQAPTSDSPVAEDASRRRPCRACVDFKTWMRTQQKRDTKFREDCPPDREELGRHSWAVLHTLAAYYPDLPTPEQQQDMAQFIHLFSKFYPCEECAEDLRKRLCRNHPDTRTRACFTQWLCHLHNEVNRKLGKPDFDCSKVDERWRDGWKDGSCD

[13] = biological target: T6, Zinc finger protein mex-5 (Caenorhabditis elegans, UniProt Q9XUB2); experiment: MEX-5/TCR-2 RNA interaction inhibitors, dose response, biochemical, C. elegans, fluorescence polarization (AID 1960)
T6 sequence (Q9XUB2 whole entry): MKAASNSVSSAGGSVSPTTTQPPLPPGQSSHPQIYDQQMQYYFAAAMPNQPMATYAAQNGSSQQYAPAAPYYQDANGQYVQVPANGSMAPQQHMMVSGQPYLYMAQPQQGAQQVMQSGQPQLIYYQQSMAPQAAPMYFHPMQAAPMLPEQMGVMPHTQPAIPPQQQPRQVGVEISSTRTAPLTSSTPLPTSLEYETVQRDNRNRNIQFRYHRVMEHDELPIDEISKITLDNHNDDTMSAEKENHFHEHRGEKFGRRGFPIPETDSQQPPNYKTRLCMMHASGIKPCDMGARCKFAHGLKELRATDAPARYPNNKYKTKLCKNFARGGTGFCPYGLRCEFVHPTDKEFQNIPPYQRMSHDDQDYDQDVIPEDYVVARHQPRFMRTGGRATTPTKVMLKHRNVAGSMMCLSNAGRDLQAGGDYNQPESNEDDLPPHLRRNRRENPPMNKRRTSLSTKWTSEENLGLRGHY

[14] = cells; assay type: functional, cell-based
[15] = system: INS1; experiment: beta cell apoptosis inhibitors, cytokine rescue, dose response, luminescence, retest (AID 449756); assay type: functional, cell-based; conditions: Rattus norvegicus;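 also: cell death triggered by IL-1 beta plus TNF-alpha plus IFN-gamma mixture; protective hits raise ATP signal compared with cytokine alone wells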
[16] = cells; assay type: functional, cell-based; remark: listed apart in the source
[17] = biological target: T7, RNA-binding protein pos-1 (Caenorhabditis elegans, UniProt G5EF15); experiment: inhibitors of POS-1/mex-3 RNA binding, dose response, biochemical, fluorescence polarization (AID 1964);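 also: purified POS-1 fused to maltose binding protein made in E. coli; potency of compounds blocking POS-1 binding to fluorescent RNA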
T7 sequence (G5EF15 whole entry): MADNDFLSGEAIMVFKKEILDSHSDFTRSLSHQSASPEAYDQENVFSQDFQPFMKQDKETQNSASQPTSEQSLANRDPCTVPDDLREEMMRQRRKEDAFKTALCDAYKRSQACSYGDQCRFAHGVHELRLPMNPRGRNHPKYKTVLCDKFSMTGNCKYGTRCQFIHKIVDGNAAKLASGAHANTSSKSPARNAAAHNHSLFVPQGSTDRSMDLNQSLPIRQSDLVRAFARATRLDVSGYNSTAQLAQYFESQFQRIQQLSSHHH

[18] = Luminescence Cell-Based Dose Retest to Confirm Inhibitors of Cancer Stem Cells. [Related pubchem assays (depositor defined):AID2717, AID2721]; assay type: functional; conditions: Homo sapiens
[19] = biological target: Cytochrome P450 2D6 (Homo sapiens, UniProt P10635);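 also: CYP2D6 member of a cytochrome P450 panel assay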
Sequence of Cytochrome P450 2D6 (P10635 whole entry): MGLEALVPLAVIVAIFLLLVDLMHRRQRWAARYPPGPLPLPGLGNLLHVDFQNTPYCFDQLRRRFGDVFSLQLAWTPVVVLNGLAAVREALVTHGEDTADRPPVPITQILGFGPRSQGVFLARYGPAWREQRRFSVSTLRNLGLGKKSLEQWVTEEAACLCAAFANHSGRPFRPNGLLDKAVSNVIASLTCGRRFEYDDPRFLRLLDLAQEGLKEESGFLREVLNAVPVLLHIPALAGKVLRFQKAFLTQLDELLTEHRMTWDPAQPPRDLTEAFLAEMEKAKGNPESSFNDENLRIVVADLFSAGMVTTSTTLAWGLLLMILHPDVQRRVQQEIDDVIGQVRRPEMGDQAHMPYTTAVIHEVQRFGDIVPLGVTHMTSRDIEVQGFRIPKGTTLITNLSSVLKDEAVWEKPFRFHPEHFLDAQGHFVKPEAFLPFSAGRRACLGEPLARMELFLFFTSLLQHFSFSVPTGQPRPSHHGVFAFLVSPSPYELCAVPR

Structure (SMILES): CCN(CC)S(=O)(=O)c1ccc(-c2ccc(S(=O)(=O)N(CC)CC)cc2)cc1
- AC50 [1]: 3.81 µM (active)
- AC50 [2]: 6.43 µM (active)
- AC50 [3]: 3.13 µM (active)

Structure (SMILES): CC1CCN(C(=O)C2CCN(S(=O)(=O)c3cccs3)CC2)CC1
- EC50 [4]: > 53 µM (inactive)
- IC50 [5]: > 47.1 µM (inactive)

Structure (SMILES): Cc1nn(-c2ccccc2)c2sc(C(=O)OCN3C(=O)c4ccccc4C3=O)cc12
- IC50 [6]: 9.75 µM (active)

Structure (SMILES): O=C(Nc1nccs1)c1ccc2ccccc2n1
- IC50 [7]: 21.3 µM (active)

Structure (SMILES): Cc1cccc(NC(=O)C(NS(=O)(=O)c2ccc3c(c2)CCC(=O)N3)c2ccccc2)n1 (stereo unspecified)
- IC50 [8]: > 66 µM (inactive)
- IC50 [9]: > 66 µM (inactive)

Structure (SMILES): Cc1nn(-c2ccccc2)c(NC(=O)c2cccs2)c(-c2ccccc2Cl)c1=O
- EC50 [4]: > 53 µM (inactive)
- IC50 [5]: > 47.1 µM (inactive)

Structure (SMILES): Cc1cccnc1NC(=S)NC(=O)c1oc2ccccc2c1C
- IC50 [8]: > 66 µM (inactive)
- IC50 [9]: > 66 µM (inactive)

Structure (SMILES): O=C1[C@H]2[C@@H](c3ccc(F)cc3)N3C(=O)N(c4ccccc4)C(=O)[C@@]3(Cc3ccccc3)[C@H]2C(=O)N1C1CCCCC1
- AC50 [1]: > 70 µM (inactive)
- IC50 [10]: 17.5 µM (active)
- IC50 [11]: 11 µM (active)
- AC50 [2]: 64.9 µM (active)
- AC50 [3]: 31.3 µM (active)

Structure (SMILES): CCCCCNC1=CC(=O)CC(c2ccccc2)C1 (stereo unspecified)
- EC50 [4]: > 53 µM (inactive)
- IC50 [5]: > 47.1 µM (inactive)

Structure (SMILES): Cc1cc(C(=O)NC(=S)Nc2cccc(NC(=O)C(C)C)c2)ccc1[N+](=O)[O-]
- IC50 [8]: > 66 µM (inactive)
- IC50 [9]: > 66 µM (inactive)

Structure (SMILES): COc1cc2nc(SCc3c(C)noc3C)n(CCC3=CCCCC3)c(=O)c2cc1OC
- EC50 [4]: > 53 µM (inactive)
- IC50 [5]: > 47.1 µM (inactive)

Structure (SMILES): Cc1ccc(NC(S)=Nc2ccc(F)cc2)cc1
- IC50 [8]: > 66 µM (inactive)
- IC50 [9]: > 66 µM (inactive)

Structure (SMILES): O=C(c1ccccc1)C(CN1CCCCC1)c1ccccc1 (stereo unspecified)
- AC50 [1]: 2.41 µM (active)
- AC50 [2]: 15.7 µM (active)
- AC50 [3]: 5.56 µM (active)

Structure (SMILES): COC(=O)C(CC(=O)Nc1cc(C)ccc1C)Nc1ccccc1OC (stereo unspecified)
- EC50 [4]: > 53 µM (inactive)
- AC50 [12]: 13.1 µM (active)
- IC50 [5]: > 47.1 µM (inactive)

Structure (SMILES): O=C(CCSc1nc2ccccc2s1)N/N=C/c1c(O)ccc2ccccc12
- EC50 [13]: 14.6 µM (active)
- EC50 [14]: 31.3 µM (active)
- AC50 [15]: 1.95 µM (active)
- EC50 [16]: 8.97 µM (active)
- EC50 [17]: 21.2 µM (active)
- AC50 [18]: 4.52 µM (active)

Structure (SMILES): CN(C)C(=O)CN1C(=O)NC2(CCc3ccccc32)C1=O (stereo unspecified)
- IC50 [7]: > 100 µM (inactive)

Structure (SMILES): CC(=O)N1c2ccc(S(=O)(=O)N3CCC(C(=O)Nc4cccc(F)c4)CC3)cc2CC1C (stereo unspecified)
- AC50 [1]: 4.54 µM (active)
- AC50 [2]: 48.7 µM (active)
- AC50 [3]: 12 µM (active)

Structure (SMILES): CCCCCCCCNS(=O)(=O)CCNCc1ccc(OC)cc1
- EC50 [4]: > 53 µM (inactive)
- IC50 [5]: > 47.1 µM (inactive)

Structure (SMILES): Cc1sc(NC(=O)c2ccco2)c(C(c2cccnc2)N2CCCC2)c1C (stereo unspecified)
- IC50 [7]: > 100 µM (inactive)
- AC50 [19]: 10 µM (inconclusive)

Structure (SMILES): Cc1ccc(/C=N/NC(=O)CN2CCN(Cc3ccccc3Cl)CC2)o1
- EC50 [14]: > 350 µM (not active)
- EC50 [16]: > 350 µM (not active)

Structure (SMILES): CC(=O)Nc1sc(-c2ccccc2)nc1-c1ccccc1
- EC50 [14]: > 350 µM (not active)
- EC50 [16]: > 350 µM (not active)

Structure (SMILES): N#Cc1c(-c2ccccc2)cc(-c2ccco2)c(C#N)c1N
- IC50 [6]: 33.5 µM (not active)

Structure (SMILES): O=C(Nc1ccc2snnc2c1)N1CCSCC1
- IC50 [7]: > 100 µM (inactive)

Structure (SMILES): COc1ccc(NC(=S)N/N=C/c2ccc(F)cc2)cc1OC
- IC50 [8]: > 66 µM (inactive)
- IC50 [9]: > 66 µM (inactive)

Structure (SMILES): CCOC(=O)c1sc(NC(=S)NC(=O)c2ccco2)nc1C
- IC50 [8]: > 66 µM (inactive)
- IC50 [9]: > 66 µM (inactive)
